The source of these data is patent publication EP1117659B1, “SUBSTITUTED 3-CYANOQUINOLINES AS PROTEIN TYROSINE KINASES INHIBITORS” (Wyeth Holdings Corporation, priority 1998, dated 2000).

Common to all, as to assay type: biochemical
Test [1] addresses Epithelial Cell Kinase (ECK) (Homo sapiens, UniProt P29317). Put plainly: Inhibition of Epithelial Cell Kinase (ECK), immobilized biotinylated peptide, HRP anti-phosphotyrosine readout. As to conditions: IC50, substrate phosphorylation. The method, then: In this standard pharmacological test procedure, a biotinylated peptide substrate is first immobilized on neutravidin-coated microtiter plates. The test drug, the Epithelial Cell Kinase (ECK), Mg^++, sodium vanadate (a protein tyrosine phosphatase inhibitor), and an appropriate buffer to maintain pH (7.2) are then added to the immobilized substrate-containing microtiter wells. ATP is then added to initiate phosphorylation. After incubation, the assay plates are washed with a suitable buffer leaving behind phosphorylated peptide which is exposed to horse radish peroxidase (HRP)-conjugated anti-phosphotyrosine monoclonal antibody. The antibody-treated plates are washed again and the HRP activity in individual wells is quantified as a reflection of degree of substrate phosphorylation. […] Multiple entries for a given compound indication it was tested multiple times.

Test [2] deals with T1, Kinase insert Domain containing Receptor (KDR: the catalytic domain of the VEGF receptor) (Homo sapiens, UniProt P35968).
T1 construct: KDR: the catalytic domain of the VEGF receptor
Put plainly: Inhibition of Kinase insert Domain containing Receptor (KDR), radioactive phosphorylation of Glu:Tyr copolymer. As to conditions: IC50, substrate phosphorylation. How it is done:
In this standard pharmacological test procedure, KDR protein is mixed, in the presence or absence of a inhibitor compound, with a substrate peptide to be phosphorylated (a copolymer of glutamic acid and tyrosine, E:Y :: 4:1) and other cofactors such as Mg^++ and sodium vanadate (a protein tyrosine phosphatase inhibitor) in an appropriate buffer to maintain pH (7.2). ATP and a radioactive tracer (either P^32- or P^33- labeled ATP) is then add to initiate phosphorylation. After incubation, the radioactive phosphate associated with the acid-insoluble fraction of the assay mixture is then quantified as reflection of substrate phosphorylation. […] Multiple entries for a given compound indication it was tested multiple times.

In test [3] the target is Recombinant human MEK 1 (MAPKK) / recombinant human ERK2 (MAPK) (Mek-Erk) (Homo sapiens, UniProt P28482+Q02750). Briefly: Mitogen Activated Protein Kinase (MAPK) assay, two component coupled Mek-Erk test.
Experimental: To evaluate inhibitors of the MAP (mitogen activated protein) kinase a two component coupled standard pharmacological test procedure, which measures phosphorylation of a serine/threonine residue in an appropriate sequence in the substrate in the presence and absence of a putative inhibitor, was used. Recombinant human MEK 1 (MAPKK) was first used to activate recombinant human ERK2 (MAPK) and the activated MAPK (ERK) was incubated with substrate (MBP peptide or MYC peptide) in the presence of ATP, Mg^+2 and radiolabeled ^33P ATP. The phosphorylated peptide was captured on a P 81 phosphocellulose filter (paper filter or embedded in microtiter plate) washed and counted by scintillation methods.
The peptide substrates used in the assay are MBP, peptide substrate ([sequence]), or synthetic Myc substrate, ([sequence]•5 TFA. The recombinant enzymes used were prepared as GST fusion proteins of human ERK 2 and human MEK 1. Inhibitor samples were prepared as 10X stocks in 10% DMSO and an appropriate aliquot was used to deliver either 10 ug/ml for a single point screening dose or 100, 10, 1, and 0.1 uM final concentration for a dose response curve. Final DMSO concentrations were less than or equal to 1%.
The reaction was run as follows in 50 mM Tris kinase buffer, pH 7.4 in a reaction volume of 50 ul. The appropriate volume of kinase buffer and inhibitor sample was added to the tube. Appropriate dilution of enzyme was delivered to give 2-5 ug recombinant MAPK (Erk ) per tube. The inhibitor was incubated with MAPK (Erk) for 30 min at 0° C. Recombinant Mek (MAPKK) ( 0.5-2.5 ug) or fully activated Mek (0.05-0.1 units) was added to activate the Erk and incubated for 30 min at 30° C. Then substrate and gamma ^33P ATP was were added to give a final concentration of 0.5- 1 mM MBPP or 250-500 uM Myc; 0.2-0.5 uCi gamma P 33 ATP/tube; 50 µM ATP final concentration. Samples were incubated at 30°C for 30 minutes and the reaction was stopped by adding 25 µl of ice cold 10 %TCA .After samples were chilled on ice for 30 min, 20 µl of sample was transferred onto P 81 phosphocellulose filter paper or appropriate MTP with embedded P 81 filter. Filter papers or MTP were washed 2 times with a large volume of 1% acetic acid, then 2 times with water. The filters or MTP were briefly air dried before addition of scintillant and samples were counted in the appropriate scintillation counter set up for reading ^33P isotope.
The raw data was captured as cpm. Sample replicates were averaged and corrected for background count. Mean cpm data was tabulated by group and % inhibition by a test compound was calculated as (corrected cpm control- corrected. cpm sample/control) X 100 = % inhibition.
The target in test [4] is T2, epidermal growth factor receptor kinase (EGF-R Kinase, recombinant enzyme; His-tagged cytoplasmic domain of EGFR) (Homo sapiens, UniProt P00533).
T2 construct: EGFR cDNA encoding amino acids 645 - 1186 preceded by Met-Ala-(His)6; Met-Ala-(His)6 (N); made in house; host or cells: Sf9 insect cells, recombinant baculovirus vHcEGFR52
Put plainly: Inhibition of Epidermal Growth Factor Receptor Kinase (EGF-R) using recombinant enzyme, RR-SRC peptide phosphorylation, 33P-ATP. As to conditions: for inhibition at 0.5 µM: read-out: %Inh @ 0.5 µM; for IC50: recombinant enzyme, 90 min at room temperature. How it is done:
Representative test compounds were evaluated for their ability to inhibit the phosphorylation of the tyrosine residue of a peptide substrate catalyzed by the enzyme epidermal growth factor receptor kinase. The peptide substrate (RR-SRC) has the sequence arg-arg-leu-ile-glu-asp-ala-glu-tyr-ala-ala-arg-gly. The enzyme used in this test procedure is the His-tagged cytoplasmic domain of EGFR. A recombinant baculovirus (vHcEGFR52) was constructed containing the EGFR cDNA encoding amino acids 645 - 1186 preceded by Met-Ala-(His)6. Sf9 cells in 100 mm plates were infected at an moi of 10 pfu/cell and cells were harvested 48 h post infection. A cytoplasmic extract was prepared using 1% Triton X-100 and applied to Ni-NTA column. After washing the column with 20 mM imidazole, HcEGFR was eluted with 250 mM imidazole (in 50 mM Na2HPO4, pH 8.0, 300 mM NaCl). Fractions collected were dialyzed against 10 mM HEPES, pH 7.0, 50 mM NaCl, 10% glycerol, lug/mL antipain and leupeptin and 0.1 mM Pefabloc SC. The protein was frozen in dry ice/methanol and stored -70°C.
Test compounds were made into 10 mg/mL stock solutions in 100% dimethylsulfoxide (DMSO). Prior to experiment, stock solutions were diluted to 500 uM with 100% DMSO and then serially diluted to the desired concentration with HEPES buffer (30 mM HEPES pH 7.4).
For the enzyme reaction, 10 uL of each inhibitor (at various concentrations) were added to each well of a 96-well plate. To this was added 3 uL of enzyme (1:10 dilution in 10mM HEPES, pH 7.4 for final cone. of 1:120). This was allowed to sit for 10 min on ice and was followed by the addition of 5 ul peptide (80 uM final cone.), 10ul of 4X Buffer (Table A), 0.25 uL ^33P-ATP and 12 uL H2O. The reaction was allowed to run for 90 min at room temperature and was followed by spotting the entire volume on to precut P81 filter papers. The filter discs were washed 2X with 0.5% phosphoric acid and radioactivity was measured using a liquid scintillation counter.
The inhibition data for representative compounds of the invention are shown below in TABLE 1. […] The % inhibition of the test compound was determined for at least three different concentrations and the IC50 value was evaluated from the dose response curve. […] CPM(control) is in units of counts per minute and was a number expressing the amount of radiolabled ATP (γ-^33P) incorporated into the RR-SRC peptide substrate by the enzyme after 90 minutes at room temperature in the absence of test compound as measured by liquid scintillation counting. The CPM values were corrected for the background counts produced by ATP in the absence of the enzymatic reaction. […]

Several values for one entry are separate records, joined by “and”; a condition that tells them apart may be missing. Identical values can stand only once. Counter-ions that a name gives are not always drawn. Like-named read-outs stand apart in the source and are kept apart here.

T1 sequence (P35968 834-1162 limits assumed): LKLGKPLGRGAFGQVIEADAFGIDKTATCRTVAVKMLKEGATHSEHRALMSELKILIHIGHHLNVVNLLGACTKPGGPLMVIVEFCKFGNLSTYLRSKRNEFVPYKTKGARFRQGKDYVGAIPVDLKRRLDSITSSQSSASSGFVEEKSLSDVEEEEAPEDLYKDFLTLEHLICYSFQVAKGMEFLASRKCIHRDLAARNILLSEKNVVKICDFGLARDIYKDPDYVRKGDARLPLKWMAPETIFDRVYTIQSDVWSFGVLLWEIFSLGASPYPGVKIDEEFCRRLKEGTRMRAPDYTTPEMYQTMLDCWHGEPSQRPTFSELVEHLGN
T2 sequence (P00533 669-1210): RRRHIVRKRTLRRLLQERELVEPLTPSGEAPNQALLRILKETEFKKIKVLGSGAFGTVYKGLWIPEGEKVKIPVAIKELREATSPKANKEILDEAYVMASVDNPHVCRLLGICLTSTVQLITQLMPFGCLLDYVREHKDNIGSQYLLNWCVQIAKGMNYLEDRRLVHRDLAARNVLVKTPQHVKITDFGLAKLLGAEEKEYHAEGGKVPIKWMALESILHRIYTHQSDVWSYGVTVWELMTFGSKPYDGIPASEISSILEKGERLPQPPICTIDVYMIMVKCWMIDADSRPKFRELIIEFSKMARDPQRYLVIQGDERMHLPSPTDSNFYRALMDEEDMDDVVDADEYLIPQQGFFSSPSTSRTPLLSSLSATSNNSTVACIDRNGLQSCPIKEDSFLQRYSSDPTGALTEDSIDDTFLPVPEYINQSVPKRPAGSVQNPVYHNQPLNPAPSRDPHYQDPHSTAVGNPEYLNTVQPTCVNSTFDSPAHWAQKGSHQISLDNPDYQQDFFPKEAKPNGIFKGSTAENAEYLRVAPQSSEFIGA
Recombinant human MEK 1 (MAPKK) / recombinant human ERK2 (MAPK) (Mek-Erk), sequence (P28482 2-360): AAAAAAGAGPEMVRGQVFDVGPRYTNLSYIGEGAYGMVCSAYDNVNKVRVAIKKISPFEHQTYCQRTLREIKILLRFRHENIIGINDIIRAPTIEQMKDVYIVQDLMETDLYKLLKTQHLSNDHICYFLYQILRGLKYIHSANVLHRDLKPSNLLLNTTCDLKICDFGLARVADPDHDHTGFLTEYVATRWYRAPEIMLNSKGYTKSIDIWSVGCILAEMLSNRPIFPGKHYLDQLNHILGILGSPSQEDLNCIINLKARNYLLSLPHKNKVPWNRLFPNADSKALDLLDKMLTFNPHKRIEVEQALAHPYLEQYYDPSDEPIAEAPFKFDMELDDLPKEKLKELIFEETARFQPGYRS
Recombinant human MEK 1 (MAPKK) / recombinant human ERK2 (MAPK) (Mek-Erk), sequence (Q02750 whole entry, the tested form may be a part): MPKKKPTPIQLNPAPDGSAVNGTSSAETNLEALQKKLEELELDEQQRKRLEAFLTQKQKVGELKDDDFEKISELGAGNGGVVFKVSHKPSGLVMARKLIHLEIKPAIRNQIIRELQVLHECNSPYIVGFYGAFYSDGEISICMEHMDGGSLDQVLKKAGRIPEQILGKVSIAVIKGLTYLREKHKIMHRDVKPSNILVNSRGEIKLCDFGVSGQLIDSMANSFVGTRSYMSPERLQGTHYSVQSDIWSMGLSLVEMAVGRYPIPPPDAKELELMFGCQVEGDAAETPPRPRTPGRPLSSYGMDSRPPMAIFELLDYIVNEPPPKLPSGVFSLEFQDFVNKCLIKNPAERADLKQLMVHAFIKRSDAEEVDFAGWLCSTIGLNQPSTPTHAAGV
Epithelial Cell Kinase (ECK), sequence (P29317 24-976, species assumed): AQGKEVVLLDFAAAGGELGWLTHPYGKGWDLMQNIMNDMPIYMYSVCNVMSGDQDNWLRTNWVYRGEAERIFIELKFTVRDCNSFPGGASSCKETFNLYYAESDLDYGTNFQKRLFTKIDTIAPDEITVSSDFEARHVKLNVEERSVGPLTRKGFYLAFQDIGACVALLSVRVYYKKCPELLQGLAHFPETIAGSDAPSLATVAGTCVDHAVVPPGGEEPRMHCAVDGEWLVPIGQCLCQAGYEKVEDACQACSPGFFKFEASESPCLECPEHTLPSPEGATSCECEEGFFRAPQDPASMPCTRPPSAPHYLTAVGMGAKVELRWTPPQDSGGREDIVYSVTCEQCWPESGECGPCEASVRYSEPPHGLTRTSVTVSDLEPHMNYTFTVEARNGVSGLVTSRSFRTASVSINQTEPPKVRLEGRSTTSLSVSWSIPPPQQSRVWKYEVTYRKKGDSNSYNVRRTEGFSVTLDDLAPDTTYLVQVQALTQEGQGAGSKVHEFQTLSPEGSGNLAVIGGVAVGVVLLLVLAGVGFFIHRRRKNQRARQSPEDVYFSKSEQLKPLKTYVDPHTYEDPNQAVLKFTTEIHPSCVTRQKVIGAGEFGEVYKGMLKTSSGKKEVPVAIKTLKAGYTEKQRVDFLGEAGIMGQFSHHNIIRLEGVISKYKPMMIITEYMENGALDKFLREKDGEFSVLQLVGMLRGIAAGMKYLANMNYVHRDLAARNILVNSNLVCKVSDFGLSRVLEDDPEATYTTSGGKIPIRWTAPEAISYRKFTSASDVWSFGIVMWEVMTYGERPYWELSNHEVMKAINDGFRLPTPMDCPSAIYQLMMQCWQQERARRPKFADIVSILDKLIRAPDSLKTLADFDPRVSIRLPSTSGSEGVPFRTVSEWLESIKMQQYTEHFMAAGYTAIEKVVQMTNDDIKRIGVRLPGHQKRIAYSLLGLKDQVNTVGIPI

Regarding `CCOc1cc2ncc(C#N)c(Nc3ccc4ncsc4c3)c2cc1OCC` [Example 97, 4-(Benzothiazol-6-ylamino)-6,7-diethoxy-quinoline-3-carbonitrile HCl Salt], the IC50 was more than 2.56 µM in test [1], more than 2.56 µM in test [2], 55 µM in test [3] (read-out: Mek-Erk µM) and more than 10 µM in test [4]. The inhibition at 0.5 µM in test [4] stood at 7%.
As for `N#Cc1cnc2cc3c(cc2c1Nc1ccc2cn[nH]c2c1)OCCO3` [Example 125, 9-(1H-Indazol-6-ylamino)-2,3-dihydro[1,4]dioxino[2,3-g]quinoline-8-carbonitrile], in test [3] (read-out: Mek-Erk), the IC50 worked out at 35 µM.
In the case of `COc1cc2c(Nc3ccc4cn[nH]c4c3)c(C#N)cnc2c(OC)c1OC` [Example 128, 4-(1H-Indazol-6-ylamino)-6,7,8-trimethoxy-quinoline-3-carbonitrile], the IC50 in test [1] is more than 53.3 µM; in test [2], more than 79.9 µM; in test [3] (read-out: Mek-Erk), > 100 µM and 100 µM.
Consider `COc1cc2ncc(C#N)c(Nc3ccc4c(C)cc(=O)[nH]c4c3)c2cc1OC` [Example 129, 6,7-Dimethoxy-4-(4-methyl-2-oxo-1,2-dihydro-quinolin-7-ylamino)-quinoline-3-carbonitrile], for which the IC50 was more than 25.9 µM in test [1], more than 25.9 µM in test [2], more than 100 µM in test [3] (read-out: Mek-Erk) and more than 1 µM in test [4]. In addition, the inhibition at 0.5 µM in test [4] was 6.7%.
With `COc1cc2ncc(C#N)c(Nc3ccc4sc(C)nc4c3)c2cc1OC` [Example 130, 6,7-Dimethoxy-4-(2-methyl-benzothiazol-5-ylamino)-quinoline-3-carbonitrile], the IC50 in test [1] is more than 26.6 µM; in test [2], more than 26.6 µM; in test [3] (read-out: Mek-Erk), more than 100 µM; in test [4], more than 1 µM. The inhibition at 0.5 µM in test [4] is 5%.
As for `COc1cc2ncc(C#N)c(Nc3ccc4[nH]c(=O)sc4c3)c2cc1OC` [Example 131, 6,7-Dimethoxy-4-(2-oxo-2,3-dihydro-benzothiazol-6-ylamino)-quinoline-3-carbonitrile], the IC50 in test [1] was more than 26.4 µM; in test [2], more than 26.4 µM; in test [3] (read-out: Mek-Erk), more than 100 µM; in test [4] it was more than 1 µM. Moreover, the inhibition at 0.5 µM in test [4] is 0%.
In the case of `COc1cc2ncc(C#N)c(Nc3cccc4ncccc34)c2cc1OC` [Example 132, 6,7-Dimethoxy-4-(quinolin-5-ylamino)-quinoline-3-carbonitrile], the IC50 in test [1] was more than 28.1 µM; in test [2] it was more than 28.1 µM; in test [3] (read-out: Mek-Erk), 90 µM; in test [4], more than 1 µM. For the same compound, the inhibition at 0.5 µM in test [4] worked out at 0%.
As to `COc1cc2ncc(C#N)c(Nc3cccc4cnccc34)c2cc1OC` [Example 133, 4-(Isoquinolin-5-ylamino)-6,7-dimethoxy-quinoline-3-carbonitrile], the IC50 is more than 28.1 µM in test [1], more than 28.1 µM in test [2], 90 µM in test [3] (read-out: Mek-Erk) and more than 1 µM in test [4]. Also, the inhibition at 0.5 µM in test [4] turned out to be 0%.
`COc1cc2ncc(C#N)c(Nc3cccc4cccnc34)c2cc1OC` [Example 134, 6,7-Dimethoxy-4-(quinolin-8-ylamino)-quinoline-3-carbonitrile]: the IC50 in test [1] is more than 28.1 µM; in test [2], more than 28.1 µM; in test [3] (read-out: Mek-Erk) it was more than 100 µM; in test [4], more than 1 µM. Also, the inhibition at 0.5 µM in test [4] came to 35%.
As for `COc1cc2ncc(C#N)c(Nc3ccc(O)c4ncccc34)c2cc1OC` [Example 135, 4-(8-Hydroxy-quinolin-5-ylamino)-6,7-dimethoxy-quinoline-3-carbonitrile], the IC50 in test [1] was 0.537 µM; in test [2] it was 26.9 µM; in test [3] (read-out: Mek-Erk), more than 100 µM; in test [4] it was more than 1 µM. Besides, in test [4], the inhibition at 0.5 µM worked out at 0%.
For `COc1ccc(OC)c2c(Nc3ccc4cn[nH]c4c3)c(C#N)cnc12` [Example 138, 4-(1H-Indazol-6-ylamino)-5,8-dimethoxy-quinoline-3-carbonitrile], the IC50 was more than 29 µM in test [1], more than 86.9 µM in test [2] and more than 100 µM in test [3] (read-out: Mek-Erk).
Consider `COc1cc2ncc(C#N)c(Nc3ccc4cn[nH]c4c3)c2cc1OCCCN1CCOCC1` [Example 139, 4-(1H-Indazol-6-ylamino)-7-methoxy-6-(3-morpholin-4-yl-propoxy)-quinoline-3-carbonitrile hydrochloride], for which the IC50 is more than 2.18 µM in test [1]; 21.8 µM and > 2.18 µM in test [2]; 15 µM in test [3] (read-out: Mek-Erk µM).
As for `COc1cc2ncc(C#N)c(Nc3ccc4nn[nH]c4c3)c2cc1OCCCN1CCOCC1` [Example 140, 4-(3H-Benzotriazol-5-ylamino)-7-methoxy-6-(3-morpholin-4-yl-propoxy)-quinoline-3-carbonitrile hydrochloride], the IC50 is 2.18 µM in test [1]; 22 µM and 15 µM in test [3] (read-out: Mek-Erk µM, hydrochloride).
Turning to `COc1ccc2ncc(C#N)c(Nc3ccc4cn[nH]c4c3)c2c1` [Example 141, 4-(1H -Indazol 6-ylamino)-6-methoxy-quinoline-3-carbonitrile], the IC50 in test [1] was more than 31.7 µM; in test [2], 63.4 µM; in test [3] (read-out: Mek-Erk), 1.1 µM and 2 µM; in test [4], more than 1 µM. Further, the inhibition at 0.5 µM in test [4] stood at 5.5%.
With `COc1ccc2c(Nc3ccc4cn[nH]c4c3)c(C#N)cnc2c1` [Example 143, 4-(1H-Indazol-6-ylamino)-7-methoxy-quinoline-3-carbonitrile], the IC50 is more than 31.7 µM in test [1]; 47.6 µM and > 3.17 µM in test [2]; 2 µM in test [3] (read-out: Mek-Erk).
For `COc1ccc2c(Nc3ccc4[nH]ccc4c3)c(C#N)cnc2c1` [Example 146, 4-(1H -Indol-5-ylamino)-7-methoxy-quinoline-3-carbonitrile], the IC50 in test [3] (read-out: Mek-Erk) came out at 3 µM.
With `COc1cc2ncc(C#N)c(Nc3ccc4[nH]c(C)nc4c3)c2cc1OC` [Example 152, 6,7-Dimethoxy-4-(2-methyl-1H -benzoimidazol-5-ylamino)-quinoline-3-carbonitrile], the IC50 was more than 27.8 µM in test [1], more than 100 µM in test [3] (read-out: Mek-Erk) and more than 1 µM in test [4]. In addition, the inhibition at 0.5 µM in test [4] was determined as 24%.
Consider `COc1cc2ncc(C#N)c(Nc3cccc4c3CCCC4)c2cc1OC` [Example 155, 6,7-Dimethoxy-4-(5,6,7,8,- tetrahydro-naphthalen-1-ylamino)-quinoline-3-carbonitrile], for which the IC50 in test [3] (read-out: Mek-Erk) was found to be 4 µM.
Take `COc1cc2c(Nc3ccc4cn[nH]c4c3)c(C#N)cnc2cc1OCCN(C)C` [Example 167, 7-(2-Dimethylaminoethoxy)-4-(1H-indazol-6-ylamino)-6-methoxyquinoline-3-carbonitrile]: the IC50 in test [3] (read-out: Mek-Erk) was 8 µM; in test [4] it was more than 1 µM. Besides, the inhibition at 0.5 µM in test [4] amounted to 0%.
